Experimental data as given in patent US7138361B2, “Herbicidal heterocycles” (E. I. du Pont de Nemours and Company, priority 2000, dated 2006).

How the values were obtained:
Format in all cases: in vivo
[1] = test system: yellow nutsedge (Cyperus esculentus); assay: Test C postemergence
Outline: (§1)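 Each compound was dissolved in a non-phytotoxic solvent system containing a surfactant and sprayed either on freshly planted seeds (preemergence) or on young plants, 2 to 18 cm high (postemergence). Ratings after 12 to 14 greenhouse days ran from 0, no effect, to 100, complete control.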

[2] = test system: giant foxtail (Setaria faberii); assay: Test C postemergence
Outline: as §1

[3] = test system: bermudagrass (Cynodon dactylon); assay: Test C postemergence
Outline: as §1

[4] = test system: johnsongrass (Sorghum halepense); assay: Test C postemergence
Outline: as §1

[5] = test system: Surinam grass (Brachiaria decumbens); assay: Test C postemergence
Outline: as §1

[6] = test system: pigweed (Amaranthus retroflexus); assay: Test C postemergence
Outline: as §1

[7] = test system: cocklebur (Xanthium strumarium); assay: Test C postemergence
Outline: as §1

[8] = test system: crabgrass (Digitaria sanguinalis); assay: Test C postemergence
Outline: as §1

[9] = test system: woolly cupgrass (Eriochloa villosa); assay: Test C postemergence
Outline: as §1

[10] = test system: common ragweed (Ambrosia elatior); assay: Test C postemergence
Outline: as §1

[11] = test system: morningglory (Ipomoea hederacea); assay: Test C postemergence
Outline: as §1

[12] = test system: chickweed (Stellaria media); assay: Test C postemergence
Outline: as §1

corn (Zea mays) = assay: Test C postemergence
Outline: as §1

kochia (Kochia scoparia) = assay: Test C postemergence
Outline: as §1

[13] = test system: barnyardgrass (Echinochloa crus-galli); assay: Test C flooded paddy test; details: for Barnyardgrass plant response rating: Flooded Paddy, scale 0 to 100, 0 no effect, 100 complete control; for Plant response rating, Barnyardgrass: flooded paddy test, scale 0 to 100 (0 no effect, 100 complete control)
Outline: (§2)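 2-leaf-stage plants, flooded paddy; treated; greenhouse 12–14 days; compared with controls by eye; rated 0–100 (0 none, 100 complete control).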

rice (Oryza saliva) = assay: Test C flooded paddy test; details: for Rice plant response rating: Flooded Paddy, scale 0 to 100, 0 no effect, 100 complete control; for Plant response rating, Rice: flooded paddy test, scale 0 to 100 (0 no effect, 100 complete control)
Outline: as §2

[14] = test system: duck salad (Heteranthera limosa); assay: Test C flooded paddy test; details: for Ducksalad plant response rating: Flooded Paddy, scale 0 to 100, 0 no effect, 100 complete control; for Plant response rating, Ducksalad: flooded paddy test, scale 0 to 100 (0 no effect, 100 complete control)
Outline: as §2

Sunflower = assay: Test C preemergence; details: scale 0 to 100
[15] = Rate 125 g/ha, scale 0 to 100, 0 no effect, 100 complete control
[16] = Rate 250 g/ha, scale 0 to 100 (0 no effect, 100 complete control)
[17] = Rate 500 g/ha, scale 0 to 100 (0 no effect, 100 complete control)

CCC(CC)c1ccn(C2CCN(c3ccc(C)c(OC)c3)C2=O)n1 (stereo not shown) [Compound 81]
Plant response rating, Nutsedge ([1]; Rate 31 g/ha, scale 0 to 100): 0 | Plant response rating, Nutsedge ([1]; Rate 62 g/ha, scale 0 to 100): 0 | Plant response rating, Nutsedge [1, 15]: 0 | Plant response rating, Nutsedge [1, 16]: 0 | Plant response rating, Foxtail, Giant ([2]; Rate 31 g/ha, scale 0 to 100): 0 | Plant response rating, Foxtail, Giant ([2]; Rate 62 g/ha, scale 0 to 100): 0 | Plant response rating, Foxtail, Giant [2, 15]: 0 | Plant response rating, Foxtail, Giant [2, 16]: 0 | Plant response rating, Bermudagrass ([3]; Rate 31 g/ha, scale 0 to 100): 0 | Plant response rating, Bermudagrass ([3]; Rate 62 g/ha, scale 0 to 100): 0 | Plant response rating, Bermudagrass [3, 15]: 0 | Plant response rating, Bermudagrass [3, 16]: 0 | Plant response rating, Johnsongrass ([4]; Rate 31 g/ha, scale 0 to 100): 0 | Plant response rating, Johnsongrass ([4]; Rate 62 g/ha, scale 0 to 100): 0 | Plant response rating, Johnsongrass [4, 15]: 0 | Plant response rating, Johnsongrass [4, 16]: 0 | Plant response rating, Surinam grass ([5]; Rate 31 g/ha, scale 0 to 100): 0 | Plant response rating, Surinam grass ([5]; Rate 62 g/ha, scale 0 to 100): 0 | Plant response rating, Surinam grass [5, 15]: 0 | Plant response rating, Surinam grass [5, 16]: 0 | Plant response rating, Pigweed ([6]; Rate 31 g/ha, scale 0 to 100): 0 | Plant response rating, Pigweed ([6]; Rate 62 g/ha, scale 0 to 100): 0 | Plant response rating, Pigweed [6, 15]: 0 | Plant response rating, Pigweed [6, 16]: 60 | Plant response rating, Cocklebur ([7]; Rate 31 g/ha, scale 0 to 100): 0 | Plant response rating, Cocklebur ([7]; Rate 62 g/ha, scale 0 to 100): 0 | Plant response rating, Cocklebur [7, 15]: 20 | Plant response rating, Cocklebur [7, 16]: 50 | Plant response rating, Crabgrass ([8]; Rate 31 g/ha, scale 0 to 100): 0 | Plant response rating, Crabgrass ([8]; Rate 62 g/ha, scale 0 to 100): 0 | Plant response rating, Crabgrass [8, 15]: 0 | Plant response rating, Crabgrass [8, 16]: 0 | Plant response rating, Cupgrass, Woolly ([9]; Rate 31 g/ha, scale 0 to 100): 0 | Plant response rating, Cupgrass, Woolly ([9]; Rate 62 g/ha, scale 0 to 100): 0 | Plant response rating, Cupgrass, Woolly [9, 15]: 0 | Plant response rating, Cupgrass, Woolly [9, 16]: 0 | Plant response rating, Ragweed, Common ([10]; Rate 31 g/ha, scale 0 to 100): 0 | Plant response rating, Ragweed, Common ([10]; Rate 62 g/ha, scale 0 to 100): 0 | Plant response rating, Ragweed, Common [10, 15]: 0 | Plant response rating, Ragweed, Common [10, 16]: 0 | Plant response rating, Morningglory ([11]; Rate 31 g/ha, scale 0 to 100): 50 | Plant response rating, Morningglory ([11]; Rate 62 g/ha, scale 0 to 100): 60 | Plant response rating, Morningglory [11, 15]: 80 | Plant response rating, Morningglory [11, 16]: 80 | Plant response rating, Chickweed ([12]; Rate 31 g/ha, scale 0 to 100): 0 | Plant response rating, Chickweed ([12]; Rate 62 g/ha, scale 0 to 100): 20 | Plant response rating, Chickweed [12, 15]: 20 | Plant response rating, Chickweed [12, 16]: 60 | Plant response rating, Corn (corn (Zea mays); Rate 31 g/ha, scale 0 to 100): 0 | Plant response rating, Corn (corn (Zea mays); Rate 62 g/ha, scale 0 to 100): 0 | Plant response rating, Corn (corn (Zea mays); [15]): 0 | Plant response rating, Corn (corn (Zea mays); [16]): 0 | Plant response rating, Kochia (kochia (Kochia scoparia); Rate 31 g/ha, scale 0 to 100): 40 | Plant response rating, Kochia (kochia (Kochia scoparia); Rate 62 g/ha, scale 0 to 100): 50 | Plant response rating, Kochia (kochia (Kochia scoparia); [15]): 50 | Plant response rating, Kochia (kochia (Kochia scoparia); [16]): 70 | Barnyardgrass plant response rating ([13]; Rate 250 g/ha): 90 | Barnyardgrass plant response rating ([13]; Rate 500 g/ha): 90 | Plant response rating, Barnyardgrass ([13]; Rate 62 g/ha): 20 | Plant response rating, Barnyardgrass ([13]; Rate 125 g/ha): 80 | Rice plant response rating (rice (Oryza saliva); Rate 250 g/ha): 80 | Rice plant response rating (rice (Oryza saliva); Rate 500 g/ha): 80 | Plant response rating, Rice (rice (Oryza saliva); Rate 62 g/ha): 0 | Plant response rating, Rice (rice (Oryza saliva); Rate 125 g/ha): 0 | Ducksalad plant response rating ([14]; Rate 250 g/ha): 90 | Ducksalad plant response rating ([14]; Rate 500 g/ha): 100 | Plant response rating, Ducksalad ([14]; Rate 62 g/ha): 80 | Plant response rating, Ducksalad ([14]; Rate 125 g/ha): 90 | Plant response rating, Sunflower (Sunflower; Rate 31 g/ha): 0

COc1cc(N2CCC(n3ccc(C(C)C)n3)C2=O)ccc1C (stereo not shown) [Compound 85]
Plant response rating, Nutsedge ([1]; Rate 62 g/ha, scale 0 to 100): 10 | Plant response rating, Nutsedge [1, 17]: 90 | Plant response rating, Foxtail, Giant ([2]; Rate 62 g/ha, scale 0 to 100): 20 | Plant response rating, Foxtail, Giant [2, 15]: 20 | Plant response rating, Foxtail, Giant [2, 16]: 40 | Plant response rating, Foxtail, Giant [2, 17]: 70 | Plant response rating, Bermudagrass ([3]; Rate 62 g/ha, scale 0 to 100): 0 | Plant response rating, Bermudagrass [3, 15]: 0 | Plant response rating, Bermudagrass [3, 16]: 80 | Plant response rating, Bermudagrass [3, 17]: 90 | Plant response rating, Johnsongrass ([4]; Rate 62 g/ha, scale 0 to 100): 30 | Plant response rating, Johnsongrass [4, 15]: 40 | Plant response rating, Johnsongrass [4, 16]: 40 | Plant response rating, Johnsongrass [4, 17]: 70 | Plant response rating, Surinam grass ([5]; Rate 62 g/ha, scale 0 to 100): 0 | Plant response rating, Surinam grass [5, 15]: 20 | Plant response rating, Surinam grass [5, 16]: 20 | Plant response rating, Surinam grass [5, 17]: 60 | Plant response rating, Pigweed ([6]; Rate 62 g/ha, scale 0 to 100): 60 | Plant response rating, Pigweed [6, 15]: 70 | Plant response rating, Pigweed [6, 16]: 90 | Plant response rating, Pigweed [6, 17]: 100 | Plant response rating, Cocklebur ([7]; Rate 62 g/ha, scale 0 to 100): 40 | Plant response rating, Cocklebur [7, 15]: 70 | Plant response rating, Cocklebur [7, 16]: 90 | Plant response rating, Cocklebur [7, 17]: 90 | Plant response rating, Crabgrass ([8]; Rate 62 g/ha, scale 0 to 100): 30 | Plant response rating, Crabgrass [8, 15]: 30 | Plant response rating, Crabgrass [8, 16]: 40 | Plant response rating, Crabgrass [8, 17]: 70 | Plant response rating, Cupgrass, Woolly ([9]; Rate 62 g/ha, scale 0 to 100): 30 | Plant response rating, Cupgrass, Woolly [9, 15]: 30 | Plant response rating, Cupgrass, Woolly [9, 16]: 60 | Plant response rating, Cupgrass, Woolly [9, 17]: 70 | Plant response rating, Ragweed, Common ([10]; Rate 62 g/ha, scale 0 to 100): 0 | Plant response rating, Ragweed, Common [10, 15]: 20 | Plant response rating, Ragweed, Common [10, 16]: 20 | Plant response rating, Ragweed, Common [10, 17]: 90 | Plant response rating, Morningglory ([11]; Rate 62 g/ha, scale 0 to 100): 60 | Plant response rating, Morningglory [11, 15]: 80 | Plant response rating, Morningglory [11, 16]: 80 | Plant response rating, Morningglory [11, 17]: 90 | Plant response rating, Chickweed ([12]; Rate 62 g/ha, scale 0 to 100): 20 | Plant response rating, Chickweed [12, 15]: 70 | Plant response rating, Chickweed [12, 16]: 100 | Plant response rating, Chickweed [12, 17]: 100 | Plant response rating, Corn (corn (Zea mays); Rate 62 g/ha, scale 0 to 100): 50 | Plant response rating, Corn (corn (Zea mays); [15]): 50 | Plant response rating, Corn (corn (Zea mays); [16]): 50 | Plant response rating, Corn (corn (Zea mays); [17]): 60 | Plant response rating, Kochia (kochia (Kochia scoparia); Rate 62 g/ha, scale 0 to 100): 40 | Plant response rating, Kochia (kochia (Kochia scoparia); [15]): 60 | Plant response rating, Kochia (kochia (Kochia scoparia); [16]): 80 | Plant response rating, Kochia (kochia (Kochia scoparia); [17]): 90 | Barnyardgrass plant response rating ([13]; Rate 250 g/ha): 100 | Barnyardgrass plant response rating ([13]; Rate 500 g/ha): 100 | Plant response rating, Barnyardgrass ([13]; Rate 62 g/ha): 40 | Plant response rating, Barnyardgrass ([13]; Rate 125 g/ha): 90 | Rice plant response rating (rice (Oryza saliva); Rate 250 g/ha): 80 | Rice plant response rating (rice (Oryza saliva); Rate 500 g/ha): 100 | Plant response rating, Rice (rice (Oryza saliva); Rate 62 g/ha): 30 | Plant response rating, Rice (rice (Oryza saliva); Rate 125 g/ha): 60 | Ducksalad plant response rating ([14]; Rate 250 g/ha): 100 | Ducksalad plant response rating ([14]; Rate 500 g/ha): 100 | Plant response rating, Ducksalad ([14]; Rate 62 g/ha): 90 | Plant response rating, Ducksalad ([14]; Rate 125 g/ha): 100 | Plant response rating, Sunflower (Sunflower; Rate 62 g/ha): 40
